Like-named read-outs stand apart in the source and are kept apart here.
Assays:
[1] = tested on: croton oil-induced inflammation in rats and mice; assay: croton oil-induced inflammation (ear edema); format: in vivo; conditions: systemically two hours before croton oil, ear weight after 16-24 hours
Procedure: The antiinflammatory actions of the compounds of general formula I were tested in the animal experiment by testing in the croton oil-induced inflammation in rats and mice (J. Exp. Med. (1995), 182, 99-108). In this connection, croton oil in ethanolic solution was administered topically to the animals' ears. The test substances were also administered topically or systemically simultaneously with or two hours before the croton oil. After 16-24 hours, the ear weight was measured as a yardstick of the inflammatory edema, the peroxidase activity was measured as a yardstick of the invasions of granuloctyes, and the elastase activity was measured as a yardstick of the invasions of neutrophilic granuloctyes. In this test, the compounds of general formula I inhibit the three above-mentioned inflammation parameters both after topical administration and after systemic administration.
The antiinflammatory actions of the compounds of general formula I were tested in the animal experiment in the croton oil-induced inflammation in rats and mice (J. Exp. Med. (1995), 182, 99-108). In this respect, croton oil in an ethanolic solution was administered topically to the ears in the animals. The test substances were systemically administered two hours before the croton oil. After 16-24 hours, the ear weight was measured as a yardstick of the inflammatory edema.

[2] = target: T1, glucocorticoid receptor (GR) (Homo sapiens, UniProt P04150); assay: glucocorticoid receptor (GR) binding test; conditions: cytosol preparations of Sf9 cells infected with recombinant baculoviruses coding for the GR; 10 nM [3H]-dexamethasone
T1 construct: made in house; host or cells: Sf9 insect cells infected with recombinant baculovirus; cytosol preparation
T1 sequence (P04150 1-777): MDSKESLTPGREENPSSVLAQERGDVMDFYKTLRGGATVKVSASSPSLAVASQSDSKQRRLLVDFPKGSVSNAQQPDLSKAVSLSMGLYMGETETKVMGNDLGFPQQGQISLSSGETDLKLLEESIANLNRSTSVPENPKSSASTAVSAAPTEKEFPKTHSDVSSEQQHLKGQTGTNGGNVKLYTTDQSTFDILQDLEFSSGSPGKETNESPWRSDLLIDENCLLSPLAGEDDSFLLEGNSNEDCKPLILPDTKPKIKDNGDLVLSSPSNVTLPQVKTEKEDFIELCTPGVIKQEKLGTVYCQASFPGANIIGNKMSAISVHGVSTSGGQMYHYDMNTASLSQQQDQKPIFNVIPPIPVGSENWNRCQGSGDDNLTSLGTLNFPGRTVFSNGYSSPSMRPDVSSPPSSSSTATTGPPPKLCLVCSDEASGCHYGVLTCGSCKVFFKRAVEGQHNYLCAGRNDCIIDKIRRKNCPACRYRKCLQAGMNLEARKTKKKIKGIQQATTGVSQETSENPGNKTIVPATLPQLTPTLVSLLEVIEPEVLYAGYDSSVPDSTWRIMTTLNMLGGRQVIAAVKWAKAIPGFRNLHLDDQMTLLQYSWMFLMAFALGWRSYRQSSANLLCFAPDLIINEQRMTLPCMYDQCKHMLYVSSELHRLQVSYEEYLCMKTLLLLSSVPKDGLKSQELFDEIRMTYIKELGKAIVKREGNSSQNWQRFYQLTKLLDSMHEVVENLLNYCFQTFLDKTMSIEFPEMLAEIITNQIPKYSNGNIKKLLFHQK
From the text: The binding of substances to the glucocorticoid receptor (GR) is examined with the aid of a recombinantly produced receptor. Cytosol preparations of Sf9 cells, which had been infected with recombinant baculoviruses, which code for the GR, are used for the binding studies.

[3] = tested on: secretion of cytokine IL-8 in the human monocyte cell line THP-1; assay: inhibition of LPS-triggered IL-8 secretion in THP-1 cells; format: cell-based; set-up: Inhibition of IL-8 Secretion Effectiveness: concentration or dose not given beside the values; conditions: ELISA of supernatant
Procedure: The concentration of the cytokines was determined in the supernatant with use of commercially available ELISA kits.
The potency of the antiinflammatory action is determined in a cell test by the inhibition of the secretion of cytokine IL-8. […] The concentration of the cytokines was determined in the supernatant by means of commercially available ELISA kits. In this connection, the compounds of formula 1 show a high to very high potency and action in inhibition (see Table 10).

[4] = tested on: tyrosinamino transferase (TAT); conditions: in vivo
Procedure: (§1) The activity of this enzyme can be determined photometrically from liver homogenates and represents a good yardstick of the undesirable metabolic actions of the glucocorticoids. To measure the TAT induction, the animals are sacrificed 8 hours after the test substances are administered, the livers are removed, and the TAT activity in the homogenate is measured.
(§2) As a parameter for the side effects of the steroid-induced catabolic metabolism, the activity of the enzyme tyrosinamino transferase (TAT) was determined from liver homogenates by photometry. The activity represents a good yardstick of the undesirable metabolic actions of the glucocorticoids. To measure the TAT induction, the animals are sacrificed 8 hours after the test substances are administered, the livers are removed, and the TAT activity in the homogenate is measured.

[5] = tested on: tyrosinamino transferase (TAT); assay: induction of tyrosinamino transferase (TAT) activity in liver homogenates; conditions: liver homogenate 8 hours after administration, n-fold increase compared to untreated animals
Procedure: as §1, §2

SMILES	IC50 [2] [nM]	IC50 [3] [nM]	Induction factor for TAT with 3 mg/kg [4]	Induction factor for TAT with 30 mg/kg [4]	IC50 ([3]; Homo sapiens) [nM]	Induction factor for TAT with 3 mg/kg ([5]; 3 mg/kg)	Induction factor for TAT with 30 mg/kg ([5]; 30 mg/kg)	Edema inhibition with 3 mg/kg [1] [%]	Edema inhibition with 30 mg/kg [1] [%]	Inhibition of IL-8 Secretion Effectiveness [3] [%]
Cc1noc(=O)c2ccc(NC(=O)C(O)(CC3(c4cc(F)ccc4Cl)CC3)C(F)(F)F)cc12 (single isomer, unassigned; (+)) [Example 16, compound 13, (+)-6-[3-{1-(2-chloro-5-fluorophenyl)-cyclopropyl}-2-hydroxy-2-trifluoromethyl-propionyl]-amino-4-methyl-2,3-benzoxazin-1-one]	< 0.3	9.6						47	106	58
Cc1noc(=O)c2ccc(NC(=O)C(O)(CC3(c4ccccc4C(F)(F)F)CCC3)C(F)(F)F)cc12 (single isomer, unassigned; (+)) [Example 16, compound 26, (+)-6-[3-{1-(2-trifluoromethyl-phenyl)-cyclobutyl}-2-hydroxy-2-trifluoromethylpropionyl]-amino-4-methyl-2,3-benzoxazin-1-one]	16	4.3	1.4	3.7				11	81	77
C[C@]12C=CC(=O)C=C1CC[C@@H]1[C@@H]2[C@@H](O)C[C@@]2(C)[C@H]1CC[C@]2(O)C(=O)CO [Prednisolone, reference compound]					24	2.6	8.0	35	84	95

More lines, main results first:

IC50 [2] [nM]	IC50 [3] [nM]	Induction factor for TAT with 3 mg/kg [4]	Induction factor for TAT with 30 mg/kg [4]	IC50 ([3]; Homo sapiens) [nM]	Induction factor for TAT with 3 mg/kg ([5]; 3 mg/kg)	Induction factor for TAT with 30 mg/kg ([5]; 30 mg/kg)	SMILES	Edema inhibition with 3 mg/kg [1] [%]	Edema inhibition with 30 mg/kg [1] [%]	Inhibition of IL-8 Secretion Effectiveness [3] [%]
< 0.3	65						Cc1noc(=O)c2ccc(NC(=O)C(O)(CC(C)(C)c3ccc(F)cc3Cl)C(F)(F)F)cc12 (single isomer, unassigned; (+)) [Example 3, compound 9, (+)-6-[4-(2-chloro-4-fluoro-phenyl)-2-hydroxy-4-methyl-2-trifluoromethylvaleroyl]-amino-4-methyl-2,3-benzoxazin-1-one]	50	92	51
0.62	10	1.3	2.0				Cc1noc(=O)c2ccc(NC(=O)C(O)(CC3(c4cc(F)ccc4Cl)CCC3)C(F)(F)F)cc12 (single isomer, unassigned; (+)) [Example 16, compound 16, (+)-6-[3-{1-(2-chloro-5-fluorophenyl)-cyclobutyl}-2-hydroxy-2-trifluoromethyl-propionyl]-amino-4-methyl-2,3-benzoxazin-1-one]	54	78	80
1.1	30						Cc1noc(=O)c2ccc(NC(=O)C(O)(CC3(c4cc(F)ccc4C(F)(F)F)CCC3)C(F)(F)F)cc12 (single isomer, unassigned; (+)) [Example 16, compound 33, (+)-6-[3-{1-(5-fluoro-2-trifluoromethyl-phenyl)-cyclobutyl}-2-hydroxy-2-trifluoromethylpropionyl]-amino-4-methyl-2,3-benzoxazin-1-one]	77	86	45

— patent US20020077356A1, “Nonsteroidal antiinflammatory agents” (priority 2000, published 2002)
